According to US6210964A, “Avian extracellular calcium-sensing receptor” (The Brigham and Women's Hospital, Inc., priority 1998, dated 2001):
Blank lines part the entries; values can stand above or below the compound they belong to.

What was measured:
human CaR [1] = target: T1, human CaR (Homo sapiens, UniProt P41180); experiment: Cytosolic calcium (Cai) response of HEK 293 cells stably transfected with the human CaR; assay type: cell-based; parameters: expressed in transfected cells; host or cells: HEK 293; conditions: for effect on the EC50 of activation by Cao compared with 40 mM NaCl: addition of 40 mM salt
T1 sequence (P41180 20-1078): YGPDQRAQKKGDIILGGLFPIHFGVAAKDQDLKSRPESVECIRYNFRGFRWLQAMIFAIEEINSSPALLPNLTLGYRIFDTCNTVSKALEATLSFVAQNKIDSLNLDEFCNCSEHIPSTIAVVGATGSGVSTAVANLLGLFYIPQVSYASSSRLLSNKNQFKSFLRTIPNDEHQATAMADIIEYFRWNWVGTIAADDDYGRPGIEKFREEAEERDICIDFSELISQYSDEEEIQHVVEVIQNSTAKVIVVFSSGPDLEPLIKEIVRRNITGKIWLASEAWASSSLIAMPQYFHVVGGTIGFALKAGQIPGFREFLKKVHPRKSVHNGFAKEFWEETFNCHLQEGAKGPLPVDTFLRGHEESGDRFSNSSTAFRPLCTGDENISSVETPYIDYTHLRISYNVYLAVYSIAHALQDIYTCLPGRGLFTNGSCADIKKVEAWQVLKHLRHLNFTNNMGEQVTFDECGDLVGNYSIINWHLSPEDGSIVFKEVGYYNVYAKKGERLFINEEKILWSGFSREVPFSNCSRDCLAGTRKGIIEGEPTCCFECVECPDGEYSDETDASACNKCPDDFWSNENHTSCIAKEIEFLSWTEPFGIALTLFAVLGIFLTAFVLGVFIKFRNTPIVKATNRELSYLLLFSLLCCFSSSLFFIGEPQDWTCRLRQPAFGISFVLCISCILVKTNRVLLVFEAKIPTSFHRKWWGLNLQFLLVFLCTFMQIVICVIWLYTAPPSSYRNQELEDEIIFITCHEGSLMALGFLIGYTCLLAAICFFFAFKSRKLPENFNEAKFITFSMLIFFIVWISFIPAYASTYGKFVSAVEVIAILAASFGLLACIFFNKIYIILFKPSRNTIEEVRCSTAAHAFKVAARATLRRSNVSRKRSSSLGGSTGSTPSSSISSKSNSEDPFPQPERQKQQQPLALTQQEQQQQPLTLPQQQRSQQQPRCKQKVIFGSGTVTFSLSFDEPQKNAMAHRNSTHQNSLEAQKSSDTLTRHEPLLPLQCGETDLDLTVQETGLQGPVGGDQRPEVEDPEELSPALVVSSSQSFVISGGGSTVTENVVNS
Experimental: Measurement of Cai using cell population system: Coverslips with near-confluent HEK cells were loaded with fura-2/AM and placed diagonally into thermostated cuvettes equipped with a magnetic stirrer. The bath solution was stirred at 37° C., and CaR agonists were added to the desired final concentration. Excitation monochrometers was centered at 340 nm and 380 nm with emission light collected at 90° using a long-pass emission filter. The 340/380 excitation ratio of emitted light was used to calculate Cai. Both in vivo and in vitro calibrations were used to estimate Cai.

chicken CaR = target: T2, chicken CaR (Gallus gallus, UniProt A0A8V0ZLX2); experiment: Expression of chicken CaR in Xenopus laevis oocytes, agonist-dependent inward Cl- currents; assay type: cell-based
T2 construct: ORF 3177 nt, nt 87-3263), T7 cRNA injected into Xenopus laevis oocytes
T2 sequence (A0A8V0ZLX2 20-1059): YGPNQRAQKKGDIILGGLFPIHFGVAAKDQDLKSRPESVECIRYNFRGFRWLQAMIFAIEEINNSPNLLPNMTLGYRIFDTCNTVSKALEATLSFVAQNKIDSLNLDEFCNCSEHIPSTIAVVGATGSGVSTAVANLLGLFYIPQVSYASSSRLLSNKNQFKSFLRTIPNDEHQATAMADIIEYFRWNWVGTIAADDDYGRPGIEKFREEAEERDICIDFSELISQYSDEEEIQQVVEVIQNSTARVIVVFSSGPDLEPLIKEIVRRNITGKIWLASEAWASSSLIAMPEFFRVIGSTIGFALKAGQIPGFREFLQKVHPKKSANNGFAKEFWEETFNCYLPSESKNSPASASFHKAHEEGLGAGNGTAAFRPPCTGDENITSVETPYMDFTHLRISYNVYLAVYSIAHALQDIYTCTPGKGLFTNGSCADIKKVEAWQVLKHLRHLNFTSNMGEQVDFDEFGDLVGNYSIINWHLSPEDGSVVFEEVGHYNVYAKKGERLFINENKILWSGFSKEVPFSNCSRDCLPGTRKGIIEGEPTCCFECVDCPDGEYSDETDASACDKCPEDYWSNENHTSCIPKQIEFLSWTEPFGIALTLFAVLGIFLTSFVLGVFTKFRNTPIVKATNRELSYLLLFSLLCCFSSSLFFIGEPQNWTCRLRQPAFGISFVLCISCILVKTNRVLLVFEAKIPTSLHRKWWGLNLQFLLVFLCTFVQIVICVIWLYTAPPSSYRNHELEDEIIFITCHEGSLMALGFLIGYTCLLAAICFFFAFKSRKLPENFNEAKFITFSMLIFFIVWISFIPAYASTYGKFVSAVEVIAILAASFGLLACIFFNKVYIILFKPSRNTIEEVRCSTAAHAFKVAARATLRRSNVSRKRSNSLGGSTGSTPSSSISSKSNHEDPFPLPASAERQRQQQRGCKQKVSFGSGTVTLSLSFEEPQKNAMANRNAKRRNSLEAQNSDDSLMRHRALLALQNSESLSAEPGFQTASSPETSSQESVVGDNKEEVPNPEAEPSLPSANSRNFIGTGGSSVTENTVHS
Text: Expression of the chicken CaR in Xenopus laevis oocytes. The assay is based on injection of synthetic RNA (cRNA) for the chicken CaR into Xenopus oocytes and measurement of agonist-dependent inward currents due to CaR-mediated stimulation of Ca^2+ -activated Cl^- channels (Brown, et al., Nature 366: 575-580 (1993)). In preparing, handling and injecting the oocytes, the techniques of Hediger et al. were followed (Proc. Nat'l Acad. Sci. USA 84:2634-2637 (1987)). cRNA was transcribed from the C1D one as previously described (Brown et al. Nature 336:575-580 (1993)). In vitro transcription of cRNA was done with T7 RNA polymerase in the presence of a cap analog (m^7 -GpppG, Pharmacia Biotech, Upsala, Sweden). Defolliculated oocytes were injected with 50 nl of a 0.25 μg/μl aqueous solution of CaR cRNA or with the same volume of H2 O as a negative control. The injected oocytes were then incubated in ND96 "standard" solution containing 92 mM Na, 5 mM K, 0.5 mM CaCl2 0.5 mM MgCl and 5 mM Hepes, pH 7.5, for 3-4 days before electrophysiological study. Cl^- currents were elicited by treatment of the oocytes with increasing concentrations of Ca^2+0, Mg^2+0 or Gd^3+0 and were measured using two electrode voltage clamp at a holding potential of […], as described in detail previously (Brown et al. Nature 336:575-580 (1993); Riccardi, et al. Proc. Nat'l Acad. Sci. USA 92:131-135 (1995)).

human CaR [2] = target: T1, human CaR; conditions: addition of NaCl
Experimental: Measurement of ^3 H-inositol phosphates: Cells transfected with DNA encoding human CaR were labeled with [^3 H]inositol (10 uCi/10^6 cells) overnight in medium 199 (with 10 ul/ml penicillin-streptomycin, 10 mM Hepes, pH 7.5, and 15% bovine serum), washed with solution (10 mM LiCl, 0.5 mM MgSO4, 0.5 mM CaCl2, and 2 mg/ml BSA in Eagle's MEM with Earle's salts), and then incubated with polyvalent cations for 30 minutes. Reactions were terminated with a final concentration of 10% TCA. After sedimentation of precipitated debris and removal of TCA by ether extraction, inositol phosphates in the aqueous phase were separated on Dowex anion exchange columns. The radioactive inositol monophosphate (InsP), bisphosphate (InsP2), trisphosphate (InsP3) and tetraphosphate (InsP4) were eluted stepwise with 0.2 M, 0.4 M, 0.8 M and 1.2 M formate containing 0.1 M formic acid, respectively, and quantitated using a liquid scintillation counter.

[3] = oocytes injected with chicken CaR cRNA, Cl- currents

SMILES: [Cl-].[Na+] [NaCl, sodium chloride]
effect on Ca0-stimulated inositol phosphate accumulation (human CaR [2]): attenuated | effect on Cai response to 2.5 mM Cao (human CaR [1]; NaCl elevated by 20 to 60 mM): attenuated | effect on threshold and EC50 of Cao activation (human CaR [1]; addition of NaCl in 20 mM increments): shift to the right

SMILES: [Cl-].[K+] [potassium chloride]
effect on the EC50 of activation by Cao compared with 40 mM NaCl (human CaR [1]): same effect

SMILES: C[N+](C)(C)CCO.[Cl-] [choline chloride]
effect on the EC50 of activation by Cao compared with 40 mM NaCl (human CaR [1]): same effect

Continued, values first:

threshold for cell activation (human CaR [1]; no alteration in NaCl): about 1.5 mM | EC50 (human CaR [1]; no alteration in NaCl, read-out: EC50 for activation of the CaR): ~3.5 mM | shift in the EC50 per 10 mM change in ionic strength (human CaR [1]; per 10 mM change in ionic strength): approximately 0.2 mM | effective concentration range (chicken CaR; [3]): millimolar range
SMILES: [Ca+2] [Ca^2+o]

magnitude of inward current responses relative to Ca2+-evoked responses (chicken CaR; FIG. 5): almost an order of magnitude greater | half-maximal activation (chicken CaR; [3]): micromolar range
SMILES: [Gd+3] [Gd^3+o]

effective concentration range (chicken CaR; [3]): millimolar range
SMILES: [Mg+2] [Mg^2+o]
